# Where “and” joins values, the source holds several entries; their conditions need not be identical. Identical values can stand only once.
# Tests used:
# [1] = target: T1, BRISC (Homo sapiens, UniProt P46736+Q15018+Q9NXR7); test: Michaelis–Menten analysis of BRISC inhibition; format: biochemical
# T1 construct: made in house; host or cells: Spodoptera frugiperda (Sf9) insect cells, MultiBac
# Procedure: (§1) IQF assays were performed in DUB reaction buffer containing 50 mM HEPES–NaOH pH 7.0, 100 mM NaCl, 0.1 mg ml^−1 BSA, 1 mM DTT and 0.03% v/v Brij-35. […] The final concentration of BRISC WT, all BRISC mutants, HsBRISCΔLoop, MmBRISC and DrBRISCΔNΔC was 1 nM. Other enzymes were tested at the following concentrations: 5 nM ARISC (FL), 10 nM CfBRISCΔNΔC, 250 nM AMSH* (ref. [43]), 500 nM USP2 and 1 μM trypsin (Sigma, 9002-07-7). For Michaelis–Menten experiments, 1 nM BRISC with 0–1 μM IQF K63-linked diubiquitin substrate was used. Michaelis–Menten analyses and Lineweaver–Burk plots were calculated using GraphPad Prism (version 9.0).
# [2] = tested on: AMSH* (a STAM2–AMSH fusion); test: AMSH* IQF DUB activity assay; format: biochemical; details: for Normalised V0: Fig. 1e, AMSH*
# Procedure: as §1
# To assess enzymatic activity, BRISC complexes were diluted to concentrations between 1 nM and 50 nM. […] Then, 20-μl enzyme reactions were carried out in 384-well black flat-bottom low-flange plates (Corning, 35373). DUB activity was measured using IQF K63-linked diubiquitin (LifeSensors, DU6303) at 50 nM. Cleaved diubiquitin was monitored by measuring fluorescence intensity (excitation, 544 nm; emission, 575 nm; dichroic mirror, 560 nm). Fluorescence intensity was measured every minute for 30 min at 30 °C. Fluorescence intensity units were plotted against time to generate a linear reaction progress curve, where the initial velocity (V0) corresponds to the gradient of the curve (typically achieved within 15 min). IC50 values were calculated using the GraphPad Prism (version 9.0) built-in dose–response equation for inhibitor concentration versus response (variable slope).
compound,measurement,setting,value
O=C(NC1CCNCC1)c1nn(C(=O)c2c(Cl)cccc2Cl)cc1NC(=O)c1c(Cl)cccc1Cl [JMS-175-2],Initial velocity (FU/min),"[1]; di-Ub-TAMRA 31.2 nM, inhibitor 48 nM",124.7 FU/min and 137.4 FU/min and 146.6 FU/min
same,Initial velocity (FU/min),"[1]; di-Ub-TAMRA 31.2 nM, inhibitor 195 nM",137.4 FU/min and 132.5 FU/min and 144.8 FU/min
same,Initial velocity (FU/min),"[1]; di-Ub-TAMRA 31.2 nM, inhibitor 781 nM",114 FU/min and 123.2 FU/min and 122.2 FU/min
same,Initial velocity (FU/min),"[1]; di-Ub-TAMRA 31.2 nM, inhibitor 3.12 μM",80.48 FU/min and 77.42 FU/min and 88.2 FU/min
same,Initial velocity (FU/min),"[1]; di-Ub-TAMRA 31.2 nM, inhibitor 12.5 μM",62.2 FU/min and 65.87 FU/min and 55.25 FU/min
same,Initial velocity (FU/min),"[1]; di-Ub-TAMRA 31.2 nM, inhibitor 50 μM",31.39 FU/min and 49.47 FU/min and 41.04 FU/min
same,Initial velocity (FU/min),"[1]; di-Ub-TAMRA 62.5 nM, inhibitor 48 nM",222.1 FU/min and 242.3 FU/min and 243.8 FU/min
same,Initial velocity (FU/min),"[1]; di-Ub-TAMRA 62.5 nM, inhibitor 195 nM",205.5 FU/min and 232 FU/min and 265.7 FU/min
same,Initial velocity (FU/min),"[1]; di-Ub-TAMRA 62.5 nM, inhibitor 781 nM",172.4 FU/min and 226.1 FU/min and 228.4 FU/min
same,Initial velocity (FU/min),"[1]; di-Ub-TAMRA 62.5 nM, inhibitor 3.12 μM",160.2 FU/min and 117.4 FU/min and 160.5 FU/min
same,Initial velocity (FU/min),"[1]; di-Ub-TAMRA 62.5 nM, inhibitor 12.5 μM",80.26 FU/min and 123.7 FU/min and 100.7 FU/min
same,Initial velocity (FU/min),"[1]; di-Ub-TAMRA 62.5 nM, inhibitor 50 μM",43.48 FU/min and 66.23 FU/min and 64.63 FU/min
same,Initial velocity (FU/min),"[1]; di-Ub-TAMRA 125 nM, inhibitor 48 nM",476.9 FU/min and 540.8 FU/min and 503.9 FU/min
same,Initial velocity (FU/min),"[1]; di-Ub-TAMRA 125 nM, inhibitor 195 nM",474.4 FU/min and 538.4 FU/min and 481.2 FU/min
same,Initial velocity (FU/min),"[1]; di-Ub-TAMRA 125 nM, inhibitor 781 nM",402.8 FU/min and 468.4 FU/min and 474 FU/min
same,Initial velocity (FU/min),"[1]; di-Ub-TAMRA 125 nM, inhibitor 3.12 μM",310.9 FU/min and 277.7 FU/min and 256.8 FU/min
same,Initial velocity (FU/min),"[1]; di-Ub-TAMRA 125 nM, inhibitor 12.5 μM",183.3 FU/min and 175.6 FU/min and 208.5 FU/min
same,Initial velocity (FU/min),"[1]; di-Ub-TAMRA 125 nM, inhibitor 50 μM",67.12 FU/min and 88.75 FU/min and 84.05 FU/min
same,Initial velocity (FU/min),"[1]; di-Ub-TAMRA 250 nM, inhibitor 48 nM",886 FU/min and 905.7 FU/min and 906.9 FU/min
same,Initial velocity (FU/min),"[1]; di-Ub-TAMRA 250 nM, inhibitor 195 nM",866.4 FU/min and 900.9 FU/min and 960.9 FU/min
same,Initial velocity (FU/min),"[1]; di-Ub-TAMRA 250 nM, inhibitor 781 nM",740.9 FU/min and 834.7 FU/min and 869 FU/min
same,Initial velocity (FU/min),"[1]; di-Ub-TAMRA 250 nM, inhibitor 3.12 μM",573.6 FU/min and 456.6 FU/min and 483.6 FU/min
same,Initial velocity (FU/min),"[1]; di-Ub-TAMRA 250 nM, inhibitor 12.5 μM",283.5 FU/min and 316 FU/min and 354.2 FU/min
same,Initial velocity (FU/min),"[1]; di-Ub-TAMRA 250 nM, inhibitor 50 μM",119.1 FU/min and 114.6 FU/min and 160 FU/min
same,Initial velocity (FU/min),"[1]; di-Ub-TAMRA 500 nM, inhibitor 195 nM",1677 FU/min and 3345 FU/min and 1765 FU/min
same,Initial velocity (FU/min),"[1]; di-Ub-TAMRA 500 nM, inhibitor 3.12 μM",1143 FU/min and 881.4 FU/min and 1578 FU/min
same,Initial velocity (FU/min),"[1]; di-Ub-TAMRA 500 nM, inhibitor 12.5 μM",579 FU/min and 1146 FU/min and 683.3 FU/min
same,Initial velocity (FU/min),"[1]; di-Ub-TAMRA 1000 nM, inhibitor 48 nM",3019 FU/min and 3362 FU/min and 3486 FU/min
same,Initial velocity (FU/min),"[1]; di-Ub-TAMRA 1000 nM, inhibitor 195 nM",3093 FU/min and 3236 FU/min and 3210 FU/min
same,Initial velocity (FU/min),"[1]; di-Ub-TAMRA 1000 nM, inhibitor 781 nM",2371 FU/min and 2828 FU/min and 2787 FU/min
same,Initial velocity (FU/min),"[1]; di-Ub-TAMRA 1000 nM, inhibitor 3.12 μM",1731 FU/min and 1418 FU/min and 1905 FU/min
same,Initial velocity (FU/min),"[1]; di-Ub-TAMRA 1000 nM, inhibitor 12.5 μM",1009 FU/min and 1193 FU/min and 1032 FU/min
same,Initial velocity (FU/min),"[1]; di-Ub-TAMRA 1000 nM, inhibitor 50 μM",371.3 FU/min and 640.2 FU/min and 667.9 FU/min
same,mode of inhibition,[1]; enzyme activity at different substrate concentrations,not competitive inhibitors
same,inhibition of AMSH*,[2],did not inhibit
same,Normalised V0,[2]; JMS-175-2 0.02 μM,0.9388 and 1.234 and 1.0263
same,Normalised V0,[2]; JMS-175-2 0.0399999 μM,1.025 and 1.209 and 1.056
same,Normalised V0,[2]; JMS-175-2 0.0599997 μM,0.9933 and 1.1324 and 1.071
same,Normalised V0,[2]; JMS-175-2 0.0799994 μM,0.9897 and 1.213 and 1.205
same,Normalised V0,[2]; JMS-175-2 0.119998 μM,0.9691 and 1.214 and 1.014
same,Normalised V0,[2]; JMS-175-2 0.199996 μM,1.015 and 1.194 and 1.011
same,Normalised V0,[2]; JMS-175-2 0.499975 μM,0.9952 and 1.163 and 1.175
same,Normalised V0,[2]; JMS-175-2 0.799936 μM,1.012 and 1.167

# From article PMC7617869, “Molecular glues that inhibit deubiquitylase activity and inflammatory signaling” (Nature Structural & Molecular Biology, 2025)
